These results are taken from ChEMBL document CHEMBL1201862, “PubChem BioAssay data set” (2004).

Holding throughout (test): growth of human tumour cells (NCI), 48 h
Assay [1] concerns HCT-15.
The test system of assay [2] is SW-620.
Assay [3] concerns CCRF-CEM.
Assay [4] relates to SR.
Assay [5] deals with SF-295.
The test system of assay [6] is HOP-92.
The test system of assay [7] is OVCAR-3.
The subject of assay [8] is LOX IMVI.
Assay [9] relates to T47D.
The test system of assay [10] is A498.
The subject of assay [11] is Hs-578T.
In assay [12] the test system is 786-0.
For assay [13], the system named is MOLT-4.
The test system of assay [14] is HT-29.
Assay [15] concerns HOP-62.
Assay [16] deals with SN12C.
Assay [17] relates to EKVX.
In assay [18] the test system is OVCAR-8.
For assay [19], the system named is HL-60.
The test system of assay [20] is Malme-3M.

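Compound exposure: 48 hours, 5 concentrations, 96-well plates. GI50 is the concentration that inhibits growth by half.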 Activity calls are given as the source filed them. Cut-off read from the data, not from the text of the source: active = GI50 up to about 1.1 µM and inactive = higher. Numbered stars: 1 amine (or outer) side, 2 acyl side, 3 side chain; on linkers, the order of the positions; unused ones are H or OH. Square brackets hold non-standard residues; d marks the D form. Peptide text beside a SMILES is read from it. * marks the point of attachment. X30 = CC(=O)N(C)SCC(N[*:1])C(=O)[*:2]; Cbz = O=C(OCc1ccccc1)*; Bn = c1ccc(C*)cc1

In the case of `CC(=O)Nc1ccc2c(C)c3c(nc2n1)[nH]c1ccccc13`, the GI50 was 15.5 µM in assay [1]; 37.1 µM (inactive) in assay [2]; 30.6 µM (inactive) in assay [3]; 17.6 µM (inactive) in assay [4]; 34.3 µM (inactive) in assay [5]; 20.4 µM (inactive) in assay [6]. Further, the GI50 is 23.9 µM (inactive) in assay [7]; 16.4 µM (inactive) in assay [8]; 13.3 µM (inactive) in assay [9]; 60.7 µM (inactive) in assay [10]; 19.8 µM (inactive) in [11]; 35.4 µM (inactive) in assay [12]. For the same compound, the GI50 was 19.7 µM (inactive) in [13]; 27.9 µM (inactive) in assay [14]; 32.2 µM (inactive) in [15]; 30.5 µM (inactive) in [16]; 23.1 µM (inactive) in assay [17]; 24.9 µM (inactive) in [18].
In the case of `CC(=O)N(C)SCC(NC(=O)C(Cc1ccccc1)NC(=O)OCc1ccccc1)C(=O)NC(Cc1ccccc1)C(=O)NC(Cc1c[nH]c2ccccc12)C(=O)NC(CCCCNC(=O)OCc1ccccc1)C(=O)NC(C(=O)NC(CSN(C)C(C)=O)C(=O)NC(C(N)=O)C(C)OCc1ccccc1)C(C)OCc1ccccc1` (stereo unspecified) (Cbz-F[X30]FWK(Cbz)T(Bn)[X30]T(Bn)-NH2; configuration not given here), the GI50 is greater than 100 µM in assay [1]; > 100 µM (inactive) in assay [2]; > 100 µM (inactive) in [19]; > 100 µM (inactive) in assay [20]; > 100 µM (inactive) in assay [3]; > 100 µM (inactive) in [4]. Moreover, the GI50 was > 100 µM (inactive) in assay [5]; 72.1 µM (inactive) in [6]; > 100 µM (inactive) in assay [7]; 86.5 µM (inactive) in assay [8]; > 100 µM (inactive) in assay [9]; > 100 µM (inactive) in assay [11]. The GI50 in assay [12], in assay [13], in assay [14], in assay [15], in assay [16] and in assay [17] was > 100 µM (inactive) throughout. The GI50 in assay [18] is > 100 µM (inactive).
As to `Cc1cc2c(cc1Cl)Sc1nnc(Nc3ccccc3)n1S2(=O)=O`, the GI50 in assay [1] is 5.07 µM; in [2] it was 7.87 µM (inactive); in [19], 1.98 µM (inactive); in [4], 2.59 µM (inactive); in assay [5] it was 13.3 µM (inactive); in [6], 5.57 µM (inactive). The GI50 in [7] was 2.2 µM (inactive); in [8] it was 3.85 µM (inactive); in assay [9], 7.78 µM (inactive); in assay [10], 12.7 µM (inactive); in assay [11], 3.15 µM (inactive); in [12] it was 4.75 µM (inactive). Further, the GI50 in [13] was 3.07 µM (inactive); in assay [14], 23.4 µM (inactive); in assay [15] it was 3.64 µM (inactive); in [17], 11.7 µM (inactive); in assay [18] it was 5.97 µM (inactive).
Regarding `CC(C)(Oc1ccc(-c2cccc3ccccc23)cc1)C(=O)O`, the GI50 in [1] is 77.3 µM; in assay [2], > 100 µM (inactive); in assay [19] it was 3.86 µM (inactive); in [20], > 100 µM (inactive); in assay [3], 6.22 µM (inactive); in [4], > 100 µM (inactive). Moreover, the GI50 in [5] was 60.4 µM (inactive); in [6], > 100 µM (inactive); in assay [7], > 100 µM (inactive); in [9], 80.2 µM (inactive); in assay [10], > 100 µM (inactive); in [11], > 100 µM (inactive). Further, the GI50 was > 100 µM (inactive) in [12]; > 100 µM (inactive) in assay [13]; > 100 µM (inactive) in assay [14]; > 100 µM (inactive) in [15]; 85.1 µM (inactive) in [16]; > 100 µM (inactive) in assay [17]. For the same compound, the GI50 in assay [18] is > 100 µM (inactive).
In the case of `CC(=O)N(CCCCNC(=O)C(F)(F)F)CCCNC(=O)C(F)(F)F`, the GI50 is greater than 100 µM in assay [1]; > 100 µM (inactive) in assay [2]; > 100 µM (inactive) in assay [19]; > 100 µM (inactive) in assay [3]; > 100 µM (inactive) in assay [4]; > 100 µM (inactive) in [5]. Moreover, the GI50 in assay [6], in [7], in assay [9], in assay [10], in [11] and in assay [12] was > 100 µM (inactive) each time. Further, the GI50 in assay [13], in assay [14], in assay [15], in [16], in [17] and in [18] was > 100 µM (inactive) in each case.
For `NS(=O)(=O)c1nnc(NC(=O)c2ccccc2)s1`, the GI50 in assay [1] is greater than 100 µM; in [2] it was > 100 µM (inactive); in assay [20], > 100 µM (inactive); in assay [4] it was > 100 µM (inactive); in assay [5], > 100 µM (inactive); in [6], 65.3 µM (inactive). In addition, the GI50 in assay [7], in [8], in assay [9], in [10], in [11] and in assay [12] was > 100 µM (inactive) in each case. Further, the GI50 in assay [13], in [15], in assay [16], in assay [17] and in [18] was > 100 µM (inactive) throughout.
In the case of `O=C(O)c1cc(Cl)cc(Cc2cc(Cl)cc(C(=O)O)c2O)c1O`, the GI50 in assay [1] is greater than 100 µM; in assay [2], > 100 µM (inactive); in assay [20], > 100 µM (inactive); in assay [3], > 100 µM (inactive); in [4] it was > 100 µM (inactive); in assay [5], > 100 µM (inactive). Also, the GI50 in assay [6], in assay [7], in assay [8], in [9], in assay [10] and in assay [11] was > 100 µM (inactive) throughout. For the same compound, the GI50 in [12], in [13], in [14], in [15], in assay [16] and in assay [17] was > 100 µM (inactive) in each case. For the same compound, the GI50 in assay [18] was > 100 µM (inactive).
For `CN(C)c1ccc(C2SCC(=O)N2c2ccc(Oc3ccc(Cl)cc3)c(Cl)c2)cc1` (stereo unspecified), the GI50 in assay [1] was 24.2 µM; in assay [2], 29.4 µM (inactive); in [19], 20.3 µM (inactive); in [20], 15.1 µM (inactive); in assay [3], 18.5 µM (inactive); in assay [4], 27.5 µM (inactive). Besides, the GI50 in assay [5] was > 10 µM (inactive); in assay [6], 21.8 µM (inactive); in assay [7], 23.3 µM (inactive); in [8], 18.7 µM (inactive); in assay [9], 15.3 µM (inactive); in assay [11], 14.4 µM (inactive). Moreover, the GI50 in assay [12] is 17.7 µM (inactive); in assay [13] it was 27.8 µM (inactive); in [14] it was 20.2 µM (inactive); in assay [15] it was 20.5 µM (inactive); in assay [16], 23.3 µM (inactive); in assay [17], 22.8 µM (inactive). In addition, the GI50 in [18] was 28.2 µM (inactive).
Regarding `COc1ccccc1/C=C1\S/C(=N/Nc2nc(C)c(C(C)=O)s2)NC1=O`, the GI50 in [2] was 46.1 µM (inactive); in assay [19], 26.1 µM (inactive); in assay [3], 43.4 µM (inactive); in assay [4], 31 µM (inactive); in [5], 51.5 µM (inactive); in assay [6], 19.6 µM (inactive). Further, the GI50 in assay [7] was 26.9 µM (inactive); in assay [8], 43.2 µM (inactive); in assay [9] it was 25.6 µM (inactive); in assay [10], 22.8 µM (inactive); in assay [11], 25.4 µM (inactive); in [12], 29.4 µM (inactive). The GI50 in assay [13] is 35.6 µM (inactive); in assay [14] it was 42.9 µM (inactive); in assay [15], 81.1 µM (inactive); in [16] it was 65.9 µM (inactive); in [18] it was 33.3 µM (inactive).
In the case of `CC1OC2OC3C(OCC(O)C3O)OC(=O)[C@]34CCC(C)(C)CC3C3=CCC5[C@@]6(C)C[C@H](O)[C@H](OC7OC(CO)C(O)C(O)C7OC7OC(COC(=O)CC(C)(O)CC(=O)OC1C(OC1OC(CO)C(O)C(O)C1O)C2O)C(O)C(O)C7O)[C@@](C)(CO)C6CC[C@@]5(C)[C@]3(C)CC4` (stereo partly specified), the GI50 is 6.25 µM in assay [1]; 0.359 µM (active) in [2]; 1.44 µM (inactive) in [19]; 2.41 µM (inactive) in assay [20]; 4.18 µM (inactive) in assay [3]; 3.66 µM (inactive) in assay [4]. The GI50 in [5] was 1.52 µM (inactive); in [6], 2.24 µM (inactive); in assay [7] it was 4.35 µM (inactive); in assay [8], 3.27 µM (inactive); in assay [9], 3.34 µM (inactive); in [11], 8 µM (inactive). For the same compound, the GI50 in assay [12] is 2.84 µM (inactive); in assay [13] it was 2.98 µM (inactive); in assay [14], 1.52 µM (inactive); in assay [15], 1.46 µM (inactive); in assay [16], 4.98 µM (inactive); in [18] it was 3.92 µM (inactive).
